From article PMC3171403, “Two Functionally Distinctive Phosphopantetheinyl Transferases from Amoeba Dictyostelium discoideum” (PLoS ONE, 2011) come the findings set out here.

Holding throughout (format): biochemical
In assay [1] the target is T1, DiAcpS (Dictyostelium discoideum, UniProt Q552R4).
T1 construct: gene DDB_G0275923; full gene (2 exons) in pET28a, N-terminal His6 tag, E. coli BL21(DE3); expected 20 kDa, runs at about 27 kDa
Description: gel-based radiolabel transfer to apo-ACP, phosphorimager. Conditions: labelled compound; 5-45 uM; 20 uM enzyme; 54 uM mycobacterial ACP Rv1344; 12.5 mM MgCl2, Tris-Cl pH 8.0, 30 C (gel-binding assay); only kcat/Km in text.

In assay [2] the target is T2, DiSfp (Dictyostelium discoideum, UniProt Q54MI2).
T2 construct: gene DDB_G0285927; full gene (2 exons) in pET28a, N-terminal His6 tag, E. coli BL21(DE3); 34 kDa
The description is as above. Particulars: labelled compound; 5-45 uM; 20 uM enzyme; 54 uM mycobacterial PKS2; 12.5 mM MgCl2, Tris-Cl pH 8.0, 30 C (gel-binding assay); only kcat/Km in text.

The target in assay [3] is T1, DiAcpS. Description: HPLC and MALDI-TOF of holo-ACP formation. Conditions: 250 uM CoA; 54 uM apo-ACP (Rv1344 or Dictyostelium stand-alone ACP); 12.5 mM MgCl2, Tris-Cl pH 8.0, 37 C.
Assay [4] concerns the target T2, DiSfp. Description: HPLC and MALDI-TOF of holo-ACP formation. Conditions: 250 uM CoA; 54 uM apo DiPKS16 ACP; 12.5 mM MgCl2, Tris-Cl pH 8.0, 37 C.

T2 sequence (Q54MI2 entry or part of it): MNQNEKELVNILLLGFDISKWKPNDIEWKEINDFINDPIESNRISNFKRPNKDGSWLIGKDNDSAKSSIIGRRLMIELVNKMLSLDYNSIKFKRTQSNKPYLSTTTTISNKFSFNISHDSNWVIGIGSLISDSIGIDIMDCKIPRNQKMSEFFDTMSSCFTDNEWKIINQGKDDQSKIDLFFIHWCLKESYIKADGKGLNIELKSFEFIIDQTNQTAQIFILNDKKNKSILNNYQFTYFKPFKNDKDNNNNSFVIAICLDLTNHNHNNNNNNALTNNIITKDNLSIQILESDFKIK
T1 sequence (Q552R4 entry or part of it): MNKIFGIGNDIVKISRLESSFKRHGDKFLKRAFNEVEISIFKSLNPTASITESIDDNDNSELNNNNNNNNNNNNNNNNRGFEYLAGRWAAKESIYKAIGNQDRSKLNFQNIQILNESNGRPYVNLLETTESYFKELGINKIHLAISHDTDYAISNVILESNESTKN

On to `CC(=O)SCCNC(=O)CCNC(=O)[C@H](O)C(C)(C)COP(=O)(O)OP(=O)(O)OC[C@H]1O[C@@H](n2cnc3c(N)ncnc32)[C@H](O)[C@@H]1OP(=O)(O)O` [acetyl CoA], for which the “gel-based radiolabel transfer to apo-ACP, phosphorimager” value in assay [1] was “Kinetics of DiAcpS with the ACP was determined by varying the concentrations of acetyl CoA”; in assay [2] it was “phosphopantetheinylation only by DiSfp and no activity could be observed for DiAcpS”.
As to `CC(C)(COP(=O)(O)OP(=O)(O)OC[C@H]1O[C@@H](n2cnc3c(N)ncnc32)[C@H](O)[C@@H]1OP(=O)(O)O)[C@@H](O)C(=O)NCCC(=O)NCCS` [coenzyme A], the “HPLC and MALDI-TOF of holo-ACP formation” value in assay [3] was “DiAcpS mediated conversion of apo- to holo-ACP resulted in shift in the retention time”; in assay [4], “DiSfp resulted in a shift of ACP retention time on reverse-phase column”.
